Laboratory results from publication PMC12582985, “Preparation and characterization of renal cell peptides from fetal rats for their antitumor activity” (FEBS Open Bio, 2025).
Each block holds one sequence with its values, some of them ahead of it.

Legend:
[1] = test system: MCF‐7 cells; assay: CCK‐8 cell viability assay, MCF‐7; type: cell-based, human; details: for viability of MCF‐7 cells: CCK‐8, 48 h, triplicate, peptides 5–45 μg·mL^−1, 5‐FU positive control 0.1–5 mM, vs negative control
Text: (§1) Human breast cancer MCF‐7 (RRID:CVCL_0031), human lung cancer A549 (RRID:CVCL_0023), human colon cancer HCT‐116 (RRID:CVCL_0291), human cervical cancer Hela (RRID:CVCL_0030), human hepatoma HepG2 (RRID:CVCL_0027), human gastric cancer SGC‐7901 (RRID:CVCL_0520) and human non‐tumor mamma gland epithelial MCF‐10A (RRID:CVCL_0598) and transformed human liver epithelial‐2 (THLE‐2) (RRID:CVCL_3803) cells were obtained from Shanghai Donghuan Biotechnology (Shanghai, China). All cell lines had been authenticated in the past 3 years and again within 4 months after completion of the experiments. All cell lines had been tested for mycoplasma contamination frequently. Their identities were characterized by short tandem repeat analysis. All of these cell lines were cultured in high glucose Dulbecco's modified Eagle's medium supplemented by 10% fetal bovine serum, 100 units·mL^−1 penicillin and 100 μg·mL^−1 streptomycin (complete culture medium).
(§2) MCF‐7 cells (1 × 10^4 cells per well) were treated in triplicate with different doses of each type of RC extract in 96‐well plates for varying time periods. The negative control cells were treated with the diluent of physiological saline, whereas positive control cells were treated with different concentrations (0.1–5 mM) of 5‐fluorouracil (5‐FU) (Leica, Wetzlar, Germany). During the last hour of culture, each well of cells was treated with 10 μL of CCK‐8 solution. The absorbance of the supernatants of individual wells was measured at 450 nm using a microplate reader. Similarly, the effect of different synthesized RCPs (5–45 μg·mL^−1) on the viability of different types of human cancer cells was tested with CCK‐8 assays using the diluent of physiological saline containing the same concentration of dimethylsulfoxide as a negative control and the same concentrations of 5‐FU as the positive controls. Ten RCPs with a predicted strong bioactivity were synthesized by GenScript ([…]) and their purity, sequences and solubility are shown in Table 1. […] The formula used to calculate the cytotoxicity rate of each concentration of RCP was: Cytotoxicity rate (%) = (absorbance value of the control group − absorbance value of the experimental group)/absorbance value of the control group × 100%. In addition, MCF‐7 cells were treated with each type of RCP at 45 μg·mL^−1 for 12–72 h and the dynamic impact of RCP treatment on the viability of MCF‐7 cells was determined every 12 h using CCK‐8 assays.
(§3) Data are expressed as the mean ± SEM. The data distribution was analyzed by Shapiro–Wilk test. The IC50 values of each peptide for individual cell lines were determined using the PRISM, version 8 (GraphPad Software Inc.). Briefly, all dose–response data were converted into […], which were automatically analyzed by PRISM for non‐linear regression to determine and report the IC50 and its SD for each peptide in a specific cell line. The difference among groups was analyzed by analysis of variance and post‐hoc Tukey's tests and the comparison between groups was performed using Student's t‐test and PRISM, version 8 (GraphPad Software Inc.). P < 0.05 was considered statistically significant.

[2] = test system: A549 cells; assay: CCK‐8 cell viability assay, A549; type: cell-based, human; details: CCK‐8, 48 h, triplicate; peptides 5–45 μg·mL^−1; 5‐FU positive control 0.1–5 mM; vs negative control
Text: as §1, §2, §3

[3] = test system: HCT‐116 cells; assay: CCK‐8 cell viability assay, HCT‐116; type: cell-based, human; details: CCK‐8, 48 h, triplicate; peptides 5–45 μg·mL^−1; 5‐FU positive control 0.1–5 mM; vs negative control
Text: as §1, §2, §3

[4] = test system: Hela cells; assay: CCK‐8 cell viability assay, Hela; type: cell-based, human; details: CCK‐8, 48 h, triplicate; peptides 5–45 μg·mL^−1; 5‐FU positive control 0.1–5 mM; vs negative control
Text: as §1, §2, §3

[5] = test system: HepG2 cells; assay: CCK‐8 cell viability assay, HepG2; type: cell-based, human; details: CCK‐8, 48 h, triplicate; peptides 5–45 μg·mL^−1; 5‐FU positive control 0.1–5 mM; vs negative control
Text: as §1, §2, §3

[6] = test system: SGC‐7901 cells; assay: CCK‐8 cell viability assay, SGC‐7901; type: cell-based, human; details: CCK‐8, 48 h, triplicate; peptides 5–45 μg·mL^−1; 5‐FU positive control 0.1–5 mM; vs negative control
Text: as §1, §2, §3

[7] = test system: MCF‐10A cells; assay: CCK‐8 cell viability assay, non‐tumor MCF‐10A; type: cell-based, human; details: CCK‐8, 48 h, triplicate; peptides 5–45 μg·mL^−1; 5‐FU positive control 0.1–5 mM; vs negative control
Text: as §1, §2, §3

[8] = test system: THLE‐2 cells; assay: CCK‐8 cell viability assay, non‐tumor THLE‐2; type: cell-based, human; details: CCK‐8, 48 h, triplicate; peptides 5–45 μg·mL^−1; 5‐FU positive control 0.1–5 mM; vs negative control
Text: as §1, §2, §3

[9] = test system: cancer cells (MCF‐7, A549, HCT‐116, Hela, HepG2, SGC‐7901) vs non‐tumor MCF‐10A and THLE‐2 cells; assay: CCK‐8 cytotoxicity, preference for cancer cells over non‐tumor cells; type: cell-based, human; parameters: cytotoxicity against non‐tumor MCF‐10A and THLE‐2 cells compared with tumor cell lines: dose or concentration left out as unconfirmed; details: for preference of cytotoxicity for cancer cells over non‐tumor cells: 5–45 μg·mL^−1, 48 h, CCK‐8
Text: as §1, §2, §3

[10] = Solubility of the synthesized peptides; type: physicochemical; details: for Solubility: solvent given for the synthesized peptide (GenScript)

Solubility [10]: 0.1% Dimethylsulfoxide
Sequence: RFFESFGDL [RCP‐7, synthesized 9‐mer renal cell peptide from GLOBIN domain‐containing protein, protamex‐digested]
viability of MCF‐7 cells [1]: decreased the viability | viability of A549 cells [2]: decreased the viability | viability of HCT‐116 cells [3]: decreased the viability | viability of Hela cells [4]: decreased the viability | viability of HepG2 cells [5]: decreased the viability | viability of SGC‐7901 cells [6]: decreased the viability | viability of non‐tumor MCF‐10A cells [7]: decreased the viability | viability of non‐tumor THLE‐2 cells [8]: decreased the viability | preference of cytotoxicity for cancer cells over non‐tumor cells [9]: did not preferably decrease the viability of tumor cells

aqueous solubility ([10]; in words): low aqueous solubility | Solubility [10]: 0.1% Dimethylsulfoxide
Sequence: EWLKVPCLSTRLINPENMGF [RCP‐6, synthesized 20‐mer renal cell peptide from Sacsin molecular chaperone, trypsin digested]
dynamic cytotoxicity against MCF‐7 cells ([1]; 45 μg·mL^−1, 12–72 h, CCK‐8 every 12 h, maintained at highest levels to 72 h): increased with time from 12 h post treatment to 48 h | viability of MCF‐7 cells [1]: significantly decreased the viability | viability of A549 cells [2]: significantly decreased the viability | viability of HCT‐116 cells [3]: significantly decreased the viability | viability of Hela cells [4]: significantly decreased the viability | viability of HepG2 cells [5]: significantly decreased the viability | viability of SGC‐7901 cells [6]: significantly decreased the viability | viability of non‐tumor MCF‐10A cells [7]: only treatment with the highest doses of them slightly reduced the viability | viability of non‐tumor THLE‐2 cells [8]: only treatment with the highest doses of them slightly reduced the viability | preference of cytotoxicity for cancer cells over non‐tumor cells [9]: potent cytotoxicity preferably against cancer cells | cytotoxicity against non‐tumor MCF‐10A and THLE‐2 cells compared with tumor cell lines ([9]; 48 h, P < 0.05 or P < 0.01): statistically lower than tumor cell lines

Solubility [10]: Water, pH 7.0
Sequence: GPAGPQGPR [RCP‐3, synthesized 9‐mer renal cell peptide from Collagen alpha‐1 (I) chain, trypsin digested]
viability of MCF‐7 cells [1]: decreased the viability | viability of A549 cells [2]: decreased the viability | viability of HCT‐116 cells [3]: decreased the viability | viability of Hela cells [4]: decreased the viability | viability of HepG2 cells [5]: decreased the viability | viability of SGC‐7901 cells [6]: decreased the viability | viability of non‐tumor MCF‐10A cells [7]: decreased the viability | viability of non‐tumor THLE‐2 cells [8]: decreased the viability | preference of cytotoxicity for cancer cells over non‐tumor cells [9]: did not preferably decrease the viability of tumor cells
